This is an account of results in patent US6331570A, “Active enantiomer of RARγ-specific agonist” (Bristol-Myers Squibb Company, priority 1999, dated 2001).

The conditions of data set [1]: prior art / general statement; cited from earlier work.
A further data set relates to papillomas. As to the kind of experiment: two-stage system of mouse skin carcinogenesis (DMBA initiator, TPA promoter). The class given is in vivo. The settings on record: i.p.
Setting [2] is: 13-cis-retinoic acid 50 mg/kg (dose from text), 10 weeks monitoring.

`CC1=C(/C=C/C(C)=C/C=C/C(C)=C\C(=O)O)C(C)(C)CCC1` [13-cis-retinoic acid]: in data set [1], the “liver toxicity” value is given as “adverse side-effects on long-term use such as liver toxicity”. Moreover, the “number and size of papillomas” value with papillomas (50 mg/kg, 10 weeks) is “inactive”. Also, in the data set with papillomas (setting [2]), the “Tumor Burden (mean tumor size per mouse)” value turned out to be 6.8 mm^3 and the “Tumor Incidence (% of mice with tumors)” value came to 80%.
